Reference: patent US5955500A (G. D. Searle & Co., priority 1997, dated 1999)
Where “and” joins values, the source holds several entries; their conditions need not be identical. Equal values may be shown once. Where a name gives a salt, the structure may show the parent alone. Read-outs that look alike come from different tables or passages of the source.

How the values were obtained:
canine heart = conditions: for AH time / Heart rate / Mean arterial pressure: mean ± SE, listed as 50/50S
[1] = pH 5, individual replicates; listed as 50, hydrochloride
[2] = system: supraventricular tachycardia; conditions: intravenous; cited from earlier work
[3] = 0.1 mg/kg i.v., 0 min, hydrochloride
[4] = 0.1 mg/kg i.v., 1 min, hydrochloride
[5] = 0.1 mg/kg i.v., 2 min, hydrochloride
[6] = 0.1 mg/kg i.v., 3 min, hydrochloride
[7] = 0.1 mg/kg i.v., 4 min, hydrochloride
[8] = 0.1 mg/kg i.v., 5 min, hydrochloride
[9] = 0.2 mg/kg i.v., 0 min, hydrochloride
[10] = 0.2 mg/kg i.v., 1 min, hydrochloride
[11] = 0.2 mg/kg i.v., 2 min, hydrochloride
[12] = 0.2 mg/kg i.v., 3 min, hydrochloride
[13] = 0.2 mg/kg i.v., 4 min, hydrochloride
[14] = 0.2 mg/kg i.v., 5 min, hydrochloride
[15] = 0.4 mg/kg i.v., 0 min, hydrochloride
[16] = 0.4 mg/kg i.v., 1 min, hydrochloride
[17] = 0.4 mg/kg i.v., 2 min, hydrochloride
[18] = 0.4 mg/kg i.v., 3 min, hydrochloride
[19] = 0.4 mg/kg i.v., 4 min, hydrochloride
[20] = 0.4 mg/kg i.v., 5 min, hydrochloride

`COc1ccc(CCN(C)CCCC(C#N)(c2ccc(OC)c(OC)c2)C(C)C)cc1OC` (racemic) [racemic verapamil, benzeneacetonitrile, α-[3-[[2-(3,4-dimethoxyphenyl)ethyl]methylamino]propyl]-3,4-dimethoxy-α-(1-methylethyl) hydrochloride, reference compound] gave an AH time (canine heart; [3]) of 97 ± 16 ms, a Heart rate (canine heart; [3]) of 143 ± 11 beats per min and a Mean arterial pressure (canine heart; [3]) of 92 ± 4 mmHg. It also gave an AH time (canine heart; [4]) of 107 ± 12 ms, a Heart rate (canine heart; [4]) of 135 ± 6 beats per min and a Mean arterial pressure (canine heart; [4]) of 97 ± 4 mmHg. The AH time (canine heart; [5]) was 105 ± 9 ms, the Heart rate (canine heart; [5]) was 122 ± 7 beats per min and the Mean arterial pressure (canine heart; [5]) was 101 ± 5 mmHg. It also gave an AH time (canine heart; [6]) of 106 ± 8 ms, a Heart rate (canine heart; [6]) of 118 ± 6 beats per min and a Mean arterial pressure (canine heart; [6]) of 102 ± 5 mmHg. For the same compound, the AH time (canine heart; [7]) was 104 ± 7 ms, the Heart rate (canine heart; [7]) was 119 ± 7 beats per min and the Mean arterial pressure (canine heart; [7]) was 100 ± 4 mmHg. The AH time (canine heart; [8]) was 104 ± 6 ms, the Heart rate (canine heart; [8]) was 125 ± 8 beats per min and the Mean arterial pressure (canine heart; [8]) was 104 ± 4 mmHg. The AH time (canine heart; [9]) was 96 ± 8 ms, the Heart rate (canine heart; [9]) was 169 ± 4 beats per min and the Mean arterial pressure (canine heart; [9]) was 88 ± 5 mmHg. The AH time (canine heart; [10]) was 117 ± 11 ms, the Heart rate (canine heart; [10]) was 164 ± 8 beats per min and the Mean arterial pressure (canine heart; [10]) was 90 ± 3 mmHg. The AH time (canine heart; [11]) was 112 ± 7 ms, the Heart rate (canine heart; [11]) was 149 ± 10 beats per min and the Mean arterial pressure (canine heart; [11]) was 101 ± 4 mmHg. The AH time (canine heart; [12]) was 118 ± 9 ms, the Heart rate (canine heart; [12]) was 149 ± 10 beats per min and the Mean arterial pressure (canine heart; [12]) was 101 ± 6 mmHg. The AH time (canine heart; [13]) was 117 ± 8 ms, the Heart rate (canine heart; [13]) was 147 ± 12 beats per min and the Mean arterial pressure (canine heart; [13]) was 101 ± 4 mmHg. The AH time (canine heart; [14]) was 124 ± 8 ms, the Heart rate (canine heart; [14]) was 147 ± 13 beats per min and the Mean arterial pressure (canine heart; [14]) was 100 ± 5 mmHg. For the same compound, the “Occurrence of AV conduction block” value (canine heart; 0.2 mg/kg i.v., listed as 50R/50S-verapamil, hydrochloride) was 3 animals, the AH time (canine heart; [15]) was 101 ± 10 ms and the Heart rate (canine heart; [15]) was 180 ± 11 beats per min. It also gave a Mean arterial pressure (canine heart; [15]) of 86 ± 8 mmHg, an AH time (canine heart; [16]) of 112 ± 10 ms and a Heart rate (canine heart; [16]) of 171 ± 7 beats per min. The Mean arterial pressure (canine heart; [16]) was 87 ± 8 mmHg, the AH time (canine heart; [17]) was 116 ± 5 ms and the Heart rate (canine heart; [17]) was 162 ± 3 beats per min. It also gave a Mean arterial pressure (canine heart; [17]) of 92 ± 7 mmHg, an AH time (canine heart; [18]) of 117 ± 7 ms and a Heart rate (canine heart; [18]) of 163 ± 5 beats per min. The Mean arterial pressure (canine heart; [18]) was 97 ± 6 mmHg, the AH time (canine heart; [19]) was 119 ± 8 ms and the Heart rate (canine heart; [19]) was 162 ± 4 beats per min. The Mean arterial pressure (canine heart; [19]) was 95 ± 8 mmHg, the AH time (canine heart; [20]) was 113 ± 5 ms and the Heart rate (canine heart; [20]) was 161 ± 9 beats per min. The Mean arterial pressure (canine heart; [20]) was 98 ± 6 mmHg, the “Occurrence of second and third degree AV conduction block” value (canine heart; 0.4 mg/kg i.v., listed as 50R/50S-verapamil, hydrochloride) was 7 animals and the “Peak effect on HR, in words” value (canine heart; dog, in vivo) was “drastic increase in HR”. The “QTc interval compared with 100R-verapamil, in words” value (canine heart; dog, in vivo) was “significantly increased compared with 100R-verapamil”, the “Interaction between MAP and HR (multiple linear regression), in words” value (canine heart; increase in HR against drop in MAP) was “greatest rate of increase in HR as opposed to a drop in MAP” and the “Sinus node recovery time (SNRT), significance” value (canine heart; paced at 200 beats/min) was “significant decrease”. For the same compound, the Concentration in octanol [1] was 6.02 µg/mL and 6.36 µg/mL and 5.83 µg/mL, the Concentration in water [1] was 5.05 µg/mL and 4.80 µg/mL and 4.75 µg/mL and the “Rapid and reliable control of supraventricular tachycardia, in words” value [2] was “work well”.
